Results reported in US10772856B2, “Compositions and methods of use of beta-hydroxy-beta-methylbutyrate (HMB) for decreasing fat mass” (Metabolic Technologies, Inc., priority 2015, dated 2020).

What was measured:
[1] = tested on: Differentiated adipocytes; test: Gene expression by qPCR in differentiated adipocytes; type: cell-based; conditions: 1 mM HMB, 4 days
Description: Differentiated adipocytes were incubated for 4 days with 1 mM of HMB. RNA was extracted and gene expression was determined by qPCR. Gene expression for ATGL, ACOX, PGC1a, ATG7 and BNIP3 were analyzed. […] ATGL is highly expressed in adipose tissue of humans and mice. ACOX1, or acyl-CoA oxidase 1 is the first enzyme involved in peroxisomal fatty acid oxidation. This occurs when the fatty acid chains are too long to be handled by the mitochondria. The high-potential electrons generated are transferred to O2→H2O2 (+heat) which in the presence of catalase→H2O and O2. PGC1α is a key regulator of energy metabolism and is found to be very important in the development of brown adipose tissue which is the high energy yielding adipose tissue. Autophagy-related protein 7 (ATG7) regulates fat mass. Knocking ATG7 down will result in abnormal non-functional adipose tissue. Elevated levels increase tissue recycling. BNIP3 is another autophagy-related protein like ATG7 that appears to be significant. The gene expression results appear in FIG. 3.

[2] = after HMB is fed; cited from earlier work
[3] = tested on: SGBS human pre-adipocytes differentiated into adipocytes; test: Microarray (mRNA) pathway analysis in differentiated SGBS adipocytes; type: cell-based; conditions: 1 mM HMB for 4 days
Description: (§1) Methods. Murine 3T3-F442A preadipocytes were grown until confluence. After confluence, 3T3-F442A cells were allowed to differentiate into adipocytes and become filled with triglycerides. Lipolysis was assessed as glycerol release from 3T3-F442A adipocytes in well plates. Adipocyte monolayers were incubated with Krebs-Ringer buffer containing Hepes (KRH), supplemented with 2% fatty acid-free BSA, 5 mM glucose, ADA and PIA. In addition, cells were treated with β-hydroxy-β-methylbutyrate (HMB) at either 0 (control), 0.1, 1, or 6 mM concentrations. Cells were incubated in the absence (Basal) or in the presence of 0.1 μM isoproterenol for 1 hour. Aliquots of the incubation medium were removed and frozen until glycerol determination. Glycerol was measured by a commercial enzymatic method. Data were presented as the fold increase over control. Results. […] Lipolysis in Human Subcutaneous Adipocytes Methods. Human subcutaneous adipocytes were obtained from donors and incubated in vitro. Lipolysis was assessed as glycerol release in well plates. Adipocyte were incubated with Krebs-Ringer buffer containing Hepes (KRH), supplemented with 4% fatty acid-free BSA, 5 mM glucose, ADA and PIA. […] Glycerol was measured by a commercial enzymatic method. […] Similarly, cytokine receptor interaction and calcium signaling pathways are also elevated as measured by mRNAs.

[4] = tested on: OP9 adipocytes; test: Basal and isoproterenol stimulated lipolysis in differentiated OP9 adipocytes; type: cell-based
Description: As noted above, an increase in expression of ATGL in cells treated with HMB was observed, so the effect of HMB treatment on basal and isoproterenol stimulated lipolysis was determined directly in cultured adipocytes. The protocol of Viswanadha and Londos was used for optimization of conditions for measuring lipolysis in murine primary adipoctyes (J. Lipid Res. 2006. 47: 1859-1864) that include treatment with adenosine deaminase (ADA) to remove endogenous adenosine and then addition of ADA resistant PIA (phenylisopropyl-adenosine).
The following treatment strategies were tested: HMB doses of 0.1, 1 and 6 mM; 2 concentrations of the beta-adrenergic agonist isoproterenol 0.1 and 1 uM, and short term (immediately before lipolysis assay) vs. long term (48 h) HMB treatment (n=4 per treatment). Op9 adipocytes were used as SGBS cells take a long time (several weeks) to differentiate making them inconvenient to use.
Cells were pre-treated with varying concentrations of HMB in OP9 growth medium for 48 hrs. Following pre-treatment, cells were washed and incubated with Isoproterenol (0.1 or 1.0 uM) in lipolysis buffer: Krebs ringer bicarbonate (KRB) with 4% BSA. The medium also contained adenosine deaminase (ADA) and phenyl-isopropyl-adenosine (PIA) for 2 hrs at 37° C. ADA was added to remove endogenous adenosine and PIA, which is resistant to ADA, was used to have low standardized basal lipolysis. Following treatment, media was assayed for glycerol content and cells were lysed with RIPA buffer to determine protein concentration, *p<0.05, ** p<0.01. N=4.

[5] = tested on: 3T3-F442A adipocytes; test: Lipolysis (glycerol release) in 3T3-F442A adipocytes; type: cell-based, Murine; conditions: 1 hour
Description: Methods. Murine 3T3-F442A preadipocytes were grown until confluence. After confluence, 3T3-F442A cells were allowed to differentiate into adipocytes and become filled with triglycerides. Lipolysis was assessed as glycerol release from 3T3-F442A adipocytes in well plates. Adipocyte monolayers were incubated with Krebs-Ringer buffer containing Hepes (KRH), supplemented with 2% fatty acid-free BSA, 5 mM glucose, ADA and PIA. In addition, cells were treated with β-hydroxy-β-methylbutyrate (HMB) at either 0 (control), 0.1, 1, or 6 mM concentrations. Cells were incubated in the absence (Basal) or in the presence of 0.1 μM isoproterenol for 1 hour. Aliquots of the incubation medium were removed and frozen until glycerol determination. Glycerol was measured by a commercial enzymatic method. Data were presented as the fold increase over control. Results. […] Lipolysis in Human Subcutaneous Adipocytes Methods. Human subcutaneous adipocytes were obtained from donors and incubated in vitro. Lipolysis was assessed as glycerol release in well plates. Adipocyte were incubated with Krebs-Ringer buffer containing Hepes (KRH), supplemented with 4% fatty acid-free BSA, 5 mM glucose, ADA and PIA. In addition, cells were treated with β-hydroxy-β-methylbutyrate (HMB) at either 0 (control), 0.1, or 1 mM concentrations in the presence of 1.0 μM isoproterenol for 2 hours. Aliquots of the incubation medium were removed and frozen until glycerol determination. Glycerol was measured by a commercial enzymatic method. Data were presented as the fold increase over control. Results. […] Effect of HMB on Gene Expression in Differentiated Adipocytes SGBS human pre-adipocytes were differentiated into adipocytes and treated with 1 mM HMB for 4 days. The human Simpson-Golabi-Behmel syndrome (SGBS) preadipocyte cell strain cells originate from an adipose tissue specimen of a patient with GSBS. Microarrays (mRNAs) were performed. […] Similarly, cytokine receptor interaction and calcium signaling pathways are also elevated as measured by mRNAs.

[6] = healthy young or old adults; cited from earlier work
[7] = tested on: Human subcutaneous adipocytes; test: Lipolysis (glycerol release) in human subcutaneous adipocytes; type: cell-based; conditions: 1.0 μM isoproterenol, 2 hours
Description: as §1

[8] = tested on: Differentiated human adipocytes (SGBS); test: Phosphokinase protein array of SGBS adipocytes; type: cell-based; conditions: 1 mM HMB, 4 days, vs untreated cells
Description: This approach was used to determine in non-biased way changes in protein phosphorylation that are known to influence activity of important signaling proteins. Differentiated human adipocytes were treated for 4 days with or without HMB (1 mM). Shown are only the significant increases above untreated cells in phosphorylation of the listed protein at the indicated phosphorylation site(s).

[9] = tested on: skeletal muscle; conditions: acute ingestion of 2.4 grams; cited from earlier work
[10] = after administration; cited from earlier work

In the case of `CC(C)(O)CC(=O)O` [HMB, β-hydroxy-β-methylbutyric acid], the “expression of ATGL” value [1] is listed as “increase”, the “loss of HMB to urine” value [2] is listed as 20-50% and the “Effect on pathway: IL6 signaling (mRNA microarray)” value [3] is listed as 2.53 fold. For the same compound, the “enhancement of lipolysis in response to isoproterenol” value ([4]; 0.1 mM HMB 48 h pre-treatment, 0.1 uM isoproterenol) was 2 fold, the “increase of lipolysis over no HMB” value ([4]; 1 mM HMB 48 h pre-treatment, 0.1 uM isoproterenol) was 4 fold and the “enhancement of lipolysis response to isoproterenol” value ([4]; 6 mM HMB 48 h pre-treatment, 0.1 uM isoproterenol) was 3 fold. For the same compound, the “increase of basal lipolysis” value ([4]; HMB pretreatment, ADA followed by PIA, no isoproterenol) was “about 2 fold”, the “enhancement of isoproterenol-stimulated lipolysis (glycerol)” value ([4]; pre-treatment with HMB for 48 h, all HMB doses) was 2-4 fold and the “lipolysis (glycerol release, fold increase over control)” value ([5]; 0.1 μM isoproterenol stimulation, 0.1 mM HMB) was “increased lipolysis”. The “lipolysis (glycerol release, fold increase over control)” value ([5]; 0.1 μM isoproterenol stimulation, 6.0 mM HMB) was “decreased lipolysis”, the “lipolysis (glycerol release, fold increase over control)” value ([5]; basal, 0.1 mM HMB) was “increased lipolysis above control” and the “lipolysis (glycerol release, fold increase over control)” value ([5]; basal, 1 mM HMB) was “increased lipolysis above control”. For the same compound, the “lipolysis (glycerol release, fold increase over control)” value ([5]; basal, 6.0 mM HMB) was “decreased lipolysis”, the side effects [6] was “no side effects” and the “lipolysis (glycerol release, fold increase over control)” value ([7]; 0.1 mM HMB) was “increased lipolysis above that of control”. The “lipolysis (glycerol release, fold increase over control)” value ([7]; 1 mM HMB) was “increased lipolysis above that of control”, the “Fold Change with HMB, phosphorylation of CREB S133” value [8] was 1.233 Fold and the “Fold Change with HMB, phosphorylation of FGR Y412” value [8] was 1.262 Fold. For the same compound, the “Fold Change with HMB, phosphorylation of Fyn Y420” value [8] was 1.400 Fold, the “Fold Change with HMB, phosphorylation of GSK-3a/b S21/S9” value [8] was 1.255 Fold and the “Fold Change with HMB, phosphorylation of Lyn Y397” value [8] was 1.335 Fold. The “Fold Change with HMB, phosphorylation of P53 S46” value [8] was 0.834 Fold, the “Fold Change with HMB, phosphorylation of RSK1/2/3 S380/S386/S377” value [8] was 0.732 Fold and the “Fold Change with HMB, phosphorylation of STAT5a/b Y694/Y699” value [8] was 0.804 Fold. For the same compound, the “Fold Change with HMB, phosphorylation of Yes Y426” value [8] was 1.224 Fold, the “Fold Change with HMB, phosphorylation of p53 S15” value [8] was 0.621 Fold and the “change in AKT1/2/3 at Threonine 308” value [8] was “no change”.

For `CC(C)NCC(O)c1ccc(O)c(O)c1` (centres unmarked) [isoproterenol, reference compound], the maximal lipolysis ([4]; higher concentrations of isoproterenol (1.0 vs 0.1 uM)) was “reduced maximal lipolysis”.

For `CC(C)(O)CC(=O)O` [HMB-FA], the “protein breakdown, change” value [9] is listed as −56%, the “skeletal muscle protein synthesis, change” value [9] is listed as “+70%” and the “plasma levels of HMB compared with calcium HMB” value [10] is listed as “approximately double”. For the same compound, the “time to plasma levels compared with calcium HMB” value [10] was “about one-quarter the time”.
